Measurements from US5674886A, “Triazolylated teritiary amine compound or salt thereof” (Yamanouchi Pharmaceutical Co., Ltd., priority 1991, dated 1997).

Assays:
[1] = system: cortisol production, rabbit adrenal cultured cells; test: In vitro inhibition of cortisol production (ACTH-stimulated rabbit adrenal cultured cells); type: cell-based; settings: Oryctolagus cuniculus
Protocol: (5) In vitro inhibition of cortisol production:
The inhibitory activity was measured in accordance with the method described in Endocrinology, 114 (2) 486 (1984). The inhibitory activity of a test compound was determined based on inhibition of the cortisol production produced by stimulation of first-generation of rabit adrenal cultured cells by ACTH. The amount of cortisol was measured by RIA.
4. In vitro inhibition of cortisol production in rabbit:
IC50 value of the compounds for in vitro inhibition of cortisol production was obtained by the above-mentioned experimental method (5), and the results obtained are shown in Table 3.

aldosterone production = test: In vivo inhibition of aldosterone production in rats (ACTH-stimulated blood aldosterone); parameters: species or system rat; settings: 100 mg/kg, five rats, one-way ANOVA
Protocol: (b) In vivo inhibition of aldosterone production in rats:
The inhibitory activity was measured in accordance with the method described in J. Steroid Biochem., 34 567 (1989). The inhibitory activity of a test compound was determined based on inhibition of the blood aldosterone to be increased by stimulation by ACTH in rats. The amount of aldosterone was measured by RIA.
3. In vivo inhibition of aldosterone production in rats:
By the above-mentioned experimental method (4-b), aldosterone production inhibitory activity in rats was measured.
The statistical significance of value was analyzed by using one-way ANOVA. The results mean that the compounds of the present invention are highly safe compounds with few harmful side effects also in the in vivo test as well.

[2] = biological target: T1, aromatase from human placental microsomes (Homo sapiens, UniProt P11511); test: In vitro inhibition of aromatase in human placenta microsomes; type: biochemical; settings: [1,2-3H] androstenedione
T1 construct: in human placenta microsomes; from tissue; host or cells: human placenta, microsomes
T1 sequence (P11511 1-503): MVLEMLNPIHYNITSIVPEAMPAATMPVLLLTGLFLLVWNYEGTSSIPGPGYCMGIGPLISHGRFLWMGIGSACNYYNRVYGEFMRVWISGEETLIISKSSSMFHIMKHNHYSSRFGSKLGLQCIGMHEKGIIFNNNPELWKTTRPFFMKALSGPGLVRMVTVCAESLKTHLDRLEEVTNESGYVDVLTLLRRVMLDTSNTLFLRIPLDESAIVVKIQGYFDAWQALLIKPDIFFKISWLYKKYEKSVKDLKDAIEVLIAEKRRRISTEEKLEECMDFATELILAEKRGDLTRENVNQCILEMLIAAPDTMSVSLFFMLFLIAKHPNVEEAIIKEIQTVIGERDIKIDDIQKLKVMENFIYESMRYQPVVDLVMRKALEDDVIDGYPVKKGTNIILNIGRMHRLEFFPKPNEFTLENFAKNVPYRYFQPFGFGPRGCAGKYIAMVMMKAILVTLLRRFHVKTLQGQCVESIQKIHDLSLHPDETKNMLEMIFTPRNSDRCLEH
Protocol: (b) Inhibition of aromatase obtained from human placenta
The activity was measured in accordance with the method described in Endocrine Research, 16 (2) 253 (1990).
The inhibition activity of the compound was determined based on the inhibition of ^3 H2 O to be released from [1,2-^3 H] androstenedione in human placenta microsomes.
1. In vitro inhibition of aromatase in human placenta microsomes:
IC50 value for ex vivo inhibition of aromatase from human placental microsomes was obtained in accordance with the above-mentioned experimental method (1-b), and the results obtained are shown in Table 1.

[3] = biological target: T2, rat aromatase (rat ovarian microsomes) (Rattus norvegicus, UniProt P22443); test: In vitro inhibition of aromatase obtained from rat ovary; type: biochemical
T2 construct: in rat ovarian microsomes; from tissue; host or cells: rat ovary, microsomes
T2 sequence (P22443 1-508): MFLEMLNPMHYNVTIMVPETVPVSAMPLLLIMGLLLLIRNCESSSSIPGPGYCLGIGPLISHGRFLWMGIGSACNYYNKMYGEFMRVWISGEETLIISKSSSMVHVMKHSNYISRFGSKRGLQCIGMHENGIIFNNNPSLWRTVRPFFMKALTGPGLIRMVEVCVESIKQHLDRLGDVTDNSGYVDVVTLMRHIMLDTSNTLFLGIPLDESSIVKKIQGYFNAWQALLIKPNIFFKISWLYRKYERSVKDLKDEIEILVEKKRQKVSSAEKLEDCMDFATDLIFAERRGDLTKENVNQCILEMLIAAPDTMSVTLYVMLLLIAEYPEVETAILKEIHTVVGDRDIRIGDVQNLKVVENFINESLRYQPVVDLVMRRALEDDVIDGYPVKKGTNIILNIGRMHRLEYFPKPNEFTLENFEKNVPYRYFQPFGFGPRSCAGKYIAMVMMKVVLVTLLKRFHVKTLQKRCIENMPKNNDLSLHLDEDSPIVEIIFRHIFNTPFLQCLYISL
Protocol: (a) Inhibition of aromatase obtained from rat ovary:
The activity was measured in accordance with the method described in J. Biol. Chem., 249 5364 (1974).
The IC50 value of the test compound on aromatase inhibition was determined based on inhibition of ^3 H2 O to be released from [1,2-^3 H] androstenedione in rat ovarian microsomes.
(§1) 2. Selectivity of In vitro inhibition of rat ovarian aromatase and in vitro aldosterone production in rat:
(§2) IC50 values for in vitro inhibition of rat aromatase and […] inhibition of rat aldosterone production were measured in accordance with the above-mentioned experimental methods (1-a) and (4-a), respectively. The selectivity indicates a ratio of IC50 value for rat aldosterone production to IC50 value for rat aromatase.

[4] = Metabolism: plasma concentration of the non-changed compound after oral administration to rats; type: in vivo; settings: rat, 3 mg/kg oral
Text: From the results, it is understood that the compound of the present invention has an excellent oral absorbability and that the effect of the absorbed compound lasts long. Thus, the compound has a good profile as a medicine.

[5] = system: aldosterone production, rat adrenal cultured cells; test: In vitro inhibition of aldosterone production (ACTH-stimulated rat adrenal cultured cells); type: cell-based; settings: read-out: IC50, Rat aldosterone inhibitory activity (B)
Protocol: (a) In vitro inhibition of aldosterone production:
The activity was measured in accordance with the method described in J. Vet. Pharmacol. Therap., 11 345 (1988). The inhibition activity of the test compound was determined based on the inhibition of aldosterone production produced by stimulation of first-generation of rat adrenal cultured cells by ACTH. The amount of aldosterone was measured by RIA.
as §1, §2

Compound	IC50 [1]	inhibition of aldosterone production in rats (significance) (aldosterone production)	IC50 [2]	IC50 ([3]; rat ovarian microsomes, in vitro, read-out: IC50, Rat aromatase inhibitory activity (A))	Selectivity (B/A) ([3]; ratio of IC50 for rat aldosterone production to IC50 for rat aromatase)	half-life ([4]; read-out: extinction half time (T1/2) (converted))	Cmax ([4]; read-out: maximum value (Cmax) of the concentration of the non-changed compound in the plasma)	IC50 [5]
O=[N+]([O-])c1ccc(CN(c2ccc([N+](=O)[O-])cc2)n2cnnc2)cc1 [Example 10, 4-[N-(4-nitrobenzyl)-N-(4-nitrophenyl)amino]-4H-1,2,4-triazole]	7 µM	did not inhibit aldosterone production significantly	0.11 nM	–	–	–	–	–
O=[N+]([O-])c1ccc(N(Cc2ccc(Br)cc2)n2cnnc2)cc1 [Example 12, 4-[N-(4-bromobenzyl)-N-(4-nitrophenyl)amino]-4H-1,2,4-triazole]	–	did not inhibit aldosterone production significantly	0.03 nM	–	–	–	–	–
N#Cc1ccc(N(Cc2ccc(Br)cc2)n2cnnc2)cc1 [Example 15, 4-[N-(4-bromobenzyl)-N-(4-cyanophenyl)amino]-4H-1,2,4-triazole]	4 µM	did not inhibit aldosterone production significantly	0.13 nM	0.37 nM	6100	660 min	2880 ng/mL	2250 nM
